Target: T1, human 5-hydroxytryptamine-2C (h5-HT2C) receptor (Homo sapiens, UniProt P28335)
T1 construct: expressed in transfected cells; host or cells: CHO (Chinese Hamster Ovary) cells; membranes
T1 sequence (P28335 33-458): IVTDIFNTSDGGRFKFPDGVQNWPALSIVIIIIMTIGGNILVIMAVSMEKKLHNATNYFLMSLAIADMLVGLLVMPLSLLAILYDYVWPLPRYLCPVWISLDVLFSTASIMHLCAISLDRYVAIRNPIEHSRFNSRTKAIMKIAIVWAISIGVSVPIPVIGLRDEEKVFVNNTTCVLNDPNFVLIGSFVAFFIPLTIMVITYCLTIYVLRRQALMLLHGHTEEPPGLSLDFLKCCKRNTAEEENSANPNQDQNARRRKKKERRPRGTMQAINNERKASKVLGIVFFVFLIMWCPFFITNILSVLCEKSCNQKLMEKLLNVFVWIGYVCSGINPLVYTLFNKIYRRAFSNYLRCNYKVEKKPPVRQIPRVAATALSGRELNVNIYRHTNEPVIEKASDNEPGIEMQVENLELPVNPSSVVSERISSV
Assay: [125I]DOI binding to membranes of CHO cells expressing the human 5-HT2C receptor
Settings: [125I]DOI radioligand, CHO cell membranes, room temperature 60 min; read-out: 5-HT2C Affinity Ki

Row | Compound | Ki [nM]
1 | COc1cccc(-c2cc(F)cc3c2OC(CN)C3)c1 (racemic) [Example 197, (±)-{[5-fluoro-7-(3-methoxyphenyl)-2,3-dihydro-1-benzofuran-2-yl]methyl}amine] | 63
2 | NCC1Cc2cc(-c3ccc(Cl)cc3)cc(F)c2O1 (racemic) [Example 386, (±)-{[7-fluoro-5-(4-chlorophenyl)-2,3-dihydro-1-benzofuran-2-yl]methyl}amine] | 1020
3 | NCC1Cc2cccc(Nc3cccc(F)c3)c2O1 (racemic) [Example 183, (±)-N-[2-(aminomethyl)-2,3-dihydro-1-benzofuran-7-yl]-N-(3-fluorophenyl)amine] | 178
4 | NCC1Cc2cc(Cl)cc(-c3ccsc3)c2O1 (racemic) [Example 90, (±)-(5-chloro-7-thien-3-yl-2,3-dihydro-1-benzofuran-2-yl)methylamine] | 8
5 | CNCC1Cc2cc(-c3ccccc3)cc(-c3ccccc3C)c2O1 (racemic) [Example 511, (±)-{[7-(2-methylphenyl)-5-phenyl-2,3-dihydro-1-benzofuran-2-yl]methyl}methylamine] | 248
6 | NCC1Cc2cc(Cl)cc(-c3ccc(F)c(Cl)c3)c2O1 (racemic) [Example 259, (±)-{[5-chloro-7-(3-chloro-4-fluorophenyl)-2,3-dihydro-1-benzofuran-2-yl]methyl}amine] | 69
7 | NCC1Cc2cccc(Nc3ccc(C(F)(F)F)cc3)c2O1 (racemic) [Example 177, (±)-N-[2-(aminomethyl)-2,3-dihydro-1-benzofuran-7-yl]-N-[4-(trifluoromethyl)phenyl]amine] | 353
8 | CN(C)C[C@H]1Cc2cc(F)cc(-c3c(Cl)cccc3Cl)c2O1 [Example 547, (R)-[7-(2,6-dichloro-phenyl)-5-Fluoro-2,3-dihydro-benzofuran-2-ylmethyl]dimethylamine] | 1.8
9 | NCC1Cc2cc(-c3ccccc3)cc(-c3ccccc3F)c2O1 (racemic) [Example 348, (±)-{[7-(2-fluorophenyl)-5-phenyl-2,3-dihydro-1-benzofuran-2-yl]methyl}amine] | 529
10 | NCC1Cc2c(cccc2-c2ccccc2C(F)(F)F)O1 (single isomer, unassigned; (+)) [Example 124, (+)-1-{4-[2-(trifluoromethyl)phenyl]-2,3-dihydro-1-benzofuran-2-yl}methanamine] | 53
11 | CNCC1Cc2cc(-c3ccccc3)cc(-c3cccc(OC)c3)c2O1 (racemic) [Example 515, (±)-{[7-(3-methoxyphenyl)-5-phenyl-2,3-dihydro-1-benzofuran-2-yl]methyl}methylamine] | 965
12 | CC(C)c1ccccc1-c1cccc2c1OC(CN)C2 (single isomer, unassigned; (-)) [Example 63, (−)-[7-(2-isopropylphenyl)-2,3-dihydro-1-benzofuran-2-yl]methylamine] | 52
13 | Cc1ccc(-c2cc(-c3ccccc3)cc3c2OC(CN)C3)cc1 (racemic) [Example 353, (±)-{[7-(4-methylphenyl)-5-phenyl-2,3-dihydro-1-benzofuran-2-yl]methyl}amine] | 845
14 | Cc1ccc(-c2cc(F)c3c(c2)CC(CN)O3)cc1 (racemic) [Example 385, (±)-{[7-fluoro-5-(4-methylphenyl)-2,3-dihydro-1-benzofuran-2-yl]methyl}amine] | 1350
15 | CNCC1Cc2cc(C(F)(F)F)cc(-c3ccc(F)c(Cl)c3)c2O1 (racemic) [Example 525, (±)-{[7-(3-chloro-4-fluorophenyl)-5-(trifluoromethyl)-2,3-dihydro-1-benzofuran-2-yl]methyl}methylamine] | 559
16 | CNCC1Cc2cc(-c3ccccc3)cc(-c3ccc(Cl)cc3)c2O1 (racemic) [Example 507, (±)-{[7-(4-chlorophenyl)-5-phenyl-2,3-dihydro-1-benzofuran-2-yl]methyl}methylamine] | 2730

The next lines start with the values.

Row | Ki [nM] | Compound
17 | 207 | NCC1Cc2c(cccc2-c2ccccc2C(F)(F)F)O1 (single isomer, unassigned; (-)) [Example 123, (−)-1-{4-[2-(trifluoromethyl)phenyl]-2,3-dihydro-1-benzofuran-2-yl}methanamine]
18 | 107 | NCC1Cc2cc(C(F)(F)F)cc(-c3cccc(Cl)c3)c2O1 (racemic) [Example 320, (±)-{[5-(trifluoromethyl)-7-(3-chlorophenyl)-2,3-dihydro-1-benzofuran-2-yl]methyl}amine]
19 | 255 | NCC1Cc2cc(C(F)(F)F)cc(-c3ccc(C(F)(F)F)cc3)c2O1 (racemic) [Example 327, (±)-{[5-(trifluoromethyl)-7-(4-(trifluoromethyl)phenyl)-2,3-dihydro-1-benzofuran-2-yl]methyl}amine]
20 | 84 | Cc1ccccc1-c1cccc2c1CC(CN)O2 (single isomer, unassigned; (-)) [Example 6, (−)-1-[4-(2-methylphenyl)-2,3-dihydro-1-benzofuran-2-yl]methanamine]
21 | 36 | NCC1Cc2cc(F)cc(-c3cncnc3)c2O1 (racemic) [Example 210, (±)-[(5-fluoro-7-pyrimidin-5-yl-2,3-dihydro-1-benzofuran-2-yl)methyl]amine]
22 | 474 | CNCC1Cc2cc(C(F)(F)F)cc(-c3ccc(F)c(F)c3)c2O1 (racemic) [Example 522, (±)-N-methyl-1-[7-(3,4-difluorophenyl)-5-(trifluoromethyl)-2,3-dihydro-1-benzofuran-2-yl]methanamine]
23 | 128 | NCC1Cc2cccc(CCc3ccccc3)c2O1 (racemic) [Example 120, (±)-1-[7-(2-phenylethyl)-2,3-dihydro-1-benzofuran-2-yl]methanamine]
24 | 7 | COc1cc2c(c(-c3ccccc3C)c1)OC(CN)C2 (racemic) [Example 358, (±)-{[7-(2-methylphenyl)-5-methoxy-2,3-dihydro-1-benzofuran-2-yl]methyl}amine]
25 | 124 | NCC1Cc2cccc(-c3cccc(C(F)(F)F)c3)c2O1 (single isomer, unassigned; (+)) [Example 136, (+)-1-{7-[3-(trifluoromethyl)phenyl]-2,3-dihydro-1-benzofuran-2-yl}methanamine]
26 | 59 | COc1cccc(-c2cc(C(F)(F)F)cc3c2OC(CN)C3)c1 (racemic) [Example 321, (±)-{[5-(trifluoromethyl)-7-(3-methoxyphenyl)-2,3-dihydro-1-benzofuran-2-yl]methyl}amine]
27 | 497 | NCC1Cc2cc(-c3ccccc3)cc(-c3ccc(F)cc3)c2O1 (racemic) [Example 350, (±)-{[7-(4-fluorophenyl)-5-phenyl-2,3-dihydro-1-benzofuran-2-yl]methyl}amine]
28 | 279 | Cc1cccc(Nc2cccc3c2OC(CN)C3)c1 (racemic) [Example 182, (±)-N-[2-(aminomethyl)-2,3-dihydro-1-benzofuran-7-yl]-N-(3-methylphenyl)amine]
29 | 136 | CNCC1Cc2cc(C(F)(F)F)cc(-c3cccc(Cl)c3Cl)c2O1 (racemic) [Example 524, (±)-N-methyl-1-[7-(2,3-dichlorophenyl)-5-(trifluoromethyl)-2,3-dihydro-1-benzofuran-2-yl]methanamine]
30 | 62 | NCC1Cc2cc(Cl)cc(-c3ccsc3)c2O1 (single isomer, unassigned; (+)) [Example 92, (+)-(5-chloro-7-thien-3-yl-2,3-dihydro-1-benzofuran-2-yl)methylamine]
31 | 247 | NCC1Cc2cccc(Nc3cccc(OC(F)(F)F)c3)c2O1 (racemic) [Example 187, (±)-N-[2-(aminomethyl)-2,3-dihydro-1-benzofuran-7-yl]-N-(3-trifluoromethoxy)phenyl]amine]
32 | 60 | CNCC1Cc2cc(OC)cc(-c3cc(Cl)ccc3OC)c2O1 (racemic) [Example 502, (±)-{[7-(5-chloro-2-methoxyphenyl)-5-methoxy-2,3-dihydro-1-benzofuran-2-yl]methyl}methylamine]
33 | 263 | CC(C)(C)/C=C/c1cccc2c1OC(CN)C2 (racemic) [Example 117, (±)-1-{7-[(1E)-3,3-dimethylbut-1-enyl]-2,3-dihydro-1-benzofuran-2-yl}methanamine]
34 | 3350 | CNCC1Cc2cc(-c3ccccc3OC)cc(F)c2O1 (racemic) [Example 532, (±)-{7-fluoro-5-[2-methoxyphenyl]-2,3-dihydro-1-benzofuran-2-yl}methyl)methylamine]
35 | 616 | CNCC1Cc2cc(-c3ccccc3Cl)cc(F)c2O1 (racemic) [Example 529, (±)-{[7-fluoro-5-(2-chlorophenyl)-2,3-dihydro-1-benzofuran-2-yl]methyl}methylamine]
36 | 11 | NCC1Cc2cc(Cl)cc(-c3ccccc3)c2O1 (racemic) [Example 84, (±)-1-(5-chloro-7-phenyl-2,3-dihydro-1-benzofuran-2-yl)methanamine]
37 | 1800 | CNCC1Cc2cc(-c3ccccc3)cc(-c3ccccc3F)c2O1 (racemic) [Example 508, (±)-{[7-(2-fluorophenyl)-5-phenyl-2,3-dihydro-1-benzofuran-2-yl]methyl}methylamine]
38 | 0.4 | CNCC1Cc2ccc(Cl)c(-c3ccccc3Cl)c2O1 (racemic) [Example 404, (±)-{[6-chloro-7-(2-chlorophenyl)-2,3-dihydro-1-benzofuran-2-yl]methyl}methylamine]

Same assay, conditions: reference compounds; 95% confidence interval in parentheses; [125I]DOI radioligand; read-out: Ki

Row | Compound | Ki [nM]
39 | CSc1ccc2c(c1)C(N1CCN(C)CC1)Cc1ccccc1S2 (stereo not drawn) [Methiothepin, reference compound] | 4.6
